Measurements reported in patent publication US20220233529A1, “COMBINATION THERAPY COMPRISING A2A/A2B INHIBITORS, PD-1/PD-L1 INHIBITORS, AND ANTI-CD73 ANTIBODIES” (Incyte Corporation, priority 2020, published 2022).
Read-outs that look alike come from different tables or passages of the source.

What was measured:
[1] = system: human breast adenocarcinoma tumor, MDA-MB-231; experiment: Anti-tumor efficacy in humanized murine host carrying MDA-MB-231 tumor; type: in vivo, human CD34+ reconstituted mice; settings: vs Vehicle + IgG isotype, ANTIBODY Y 10 mg/kg i.p. every 5 days, retifanlimab 1 mg/mL i.p. every 5 days, Compound 9 10 mg/kg p.o. b.i.d., dosing day 7-35
Experimental: On day 7, and every 3 to 4 days subsequently, tumors were measured by Vernier caliper and tumor volume was calculated by the formula, Volume=[L (long dimension)×W^2 (short dimension)]/2. Based on these measurements, mice were randomized into 8 treatment groups of 10 mice each with an average starting tumor volume of 180 mm^3. The studied agents were formulated and administered as follows: ANTIBODY Y was diluted to a final concentration of 1 mg/mL in phosphate-buffered saline and administered by intraperitoneal (i.p.) injection at 10 mL/kg to mice for a dose of 10 mg/kg, every 5 days. Retifanlimab (Macrogenics) was diluted to 1 mg/mL and dosed i.p., every 5 days. For combination treatments, the two antibodies were co-formulated to a concentration of 1 mg/mL, each. The oral vehicle was 5% N,N-dimethylacetamide in 0.5% methyl-cellulose in 50 mM citrate buffer, pH 3.0 (all reagents obtained from Sigma) and was administered by oral gavage (p.o.) twice daily (b.i.d.).
Dosing began at day 7, and ran for 28 days, through day 35. […]
Tumor Growth Inhibition (TGI), defined as (1-treatment group volume)/control group volume)×100 was analyzed for the whole study on day 47, the last day prior to some animals leaving the study at their endpoint. […]

[2] = target: T1, Adenosine A2A Receptor (Homo sapiens, UniProt P29274); experiment: A2A Tag-lite HTRF assay; type: binding; settings: Tag-lite Adenosine A2A labeled cells; fluorescent antagonist ligand 12.5 nM
T1 construct: Tag-lite label (own knowledge: SNAP-tag fusion labeled with terbium); purchased CisBio C1TT1A2A
T1 sequence (P29274 whole entry, the tested form may be a part): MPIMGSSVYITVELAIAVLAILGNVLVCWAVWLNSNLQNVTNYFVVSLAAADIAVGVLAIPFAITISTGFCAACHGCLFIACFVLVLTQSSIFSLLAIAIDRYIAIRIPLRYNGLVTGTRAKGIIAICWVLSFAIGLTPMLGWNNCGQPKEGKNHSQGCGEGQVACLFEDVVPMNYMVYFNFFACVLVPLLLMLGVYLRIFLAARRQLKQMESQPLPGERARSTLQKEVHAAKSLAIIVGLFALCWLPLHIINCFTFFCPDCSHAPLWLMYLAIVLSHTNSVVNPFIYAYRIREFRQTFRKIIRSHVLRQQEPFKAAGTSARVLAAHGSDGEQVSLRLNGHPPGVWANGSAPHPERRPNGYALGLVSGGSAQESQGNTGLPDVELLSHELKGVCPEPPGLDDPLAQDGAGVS
Experimental: Test compounds were first serially diluted in DMSO and 100 nL added to the plate wells before the addition of other reaction components. The final concentration of DMSO was 1%. Tag-lite® Adenosine A2A labeled cells (CisBio C1TT1A2A) were diluted 1:5 into Tag-lite buffer (CisBio LABMED) and spun 1200 g for 5 mins.

[3] = target: T2, human adenosine A2B receptor (Homo sapiens, UniProt P29275); experiment: Adenosine A2B Receptor cyclic AMP GS Assay; type: cell-based
T2 construct: host or cells: HEK-293 (stably transfected)
T2 sequence (P29275 1-332): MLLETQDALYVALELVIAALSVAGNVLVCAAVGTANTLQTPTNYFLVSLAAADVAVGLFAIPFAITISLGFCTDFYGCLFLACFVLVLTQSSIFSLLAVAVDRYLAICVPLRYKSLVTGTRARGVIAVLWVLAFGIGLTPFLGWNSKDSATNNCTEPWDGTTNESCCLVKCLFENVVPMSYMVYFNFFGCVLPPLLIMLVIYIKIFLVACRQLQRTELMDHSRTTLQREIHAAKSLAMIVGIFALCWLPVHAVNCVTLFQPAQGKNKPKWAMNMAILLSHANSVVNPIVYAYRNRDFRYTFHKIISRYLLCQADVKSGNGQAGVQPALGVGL
Experimental: Stably transfected HEK-293 cells expressing the human adenosine A2B receptor (Perkin Elmer) were maintained in MEM culture medium with 10% FBS and 100 μg/mL Geneticin (Life Technologies). 18 to 24 hours prior to assay, geneticin was removed from culture. The cisbio cAMP-GS Dynamic kit utilizing the FRET (Fluorescence Resonance Energy Transfer) technology was used to measure cAMP accumulation in the cells. Compounds of the present disclosure at an appropriate concentration were mixed with 10000 cells/well in white 96 well half area plates (Perkin Elmer) for 30 min at RT gently shaking. […] Detection reagents, d2-labeled cAMP (acceptor) and anti-cAMP cryptate (donor) were added to each well for 60 min at RT gently shaking.

[4] = HEK-293 cells expressing human A2B, agonist NECA 12 nM, cAMP accumulation, read-out: A2B—cAMP_EC50

Row | Compound | Ki [2] [nM] | further results
1 | retifanlimab: humanized IgG4 monoclonal antibody that binds to human PD-1; heavy chain SEQ ID NO:2, light chain SEQ ID NO:3 |  | Percent TGI (Day 47 Tumor Growth Inhibition) [1]: 9.57%
2 | CCCCCn1c2cc(-c3cnn(Cc4cnc5ccsc5c4)c3)[nH]c2c(=O)n2c(C)nnc12 [Compound 19, 3-Methyl-9-pentyl-7-(1-(thieno[3,2-b]pyridin-6-ylmethyl)-1H-pyrazol-4-yl)-6,9-dihydro-5H-pyrrolo[3,2-d][1,2,4]triazolo[4,3-a]pyrimidin-5-one] | < 10 | 
3 | Cc1ncoc1-c1c(-c2cccc(C#N)c2)nc(N)c2nc(C(N)c3c(F)cccc3F)nn12 (single isomer, unassigned) [Compound 11, 3-(8-amino-2-(amino(2,6-difluorophenyl)methyl)-5-(4-methyloxazol-5-yl)-[1,2,4]triazolo[1,5-a]pyrazin-6-yl)benzonitrile] | < 10 | EC50 [3]: < 10 nM
4 | CCCCCn1c2cc(-c3cnn(Cc4cncc(C)c4)c3)[nH]c2c(=O)n2c(C)nnc12 [Compound 18, 3-Methyl-7-(1-((5-methylpyridin-3-yl)methyl)-1H-pyrazol-4-yl)-9-pentyl-6,9-dihydro-5H-pyrrolo[3,2-d][1,2,4]triazolo[4,3-a]pyrimidin-5-one] | < 10 | 
5 | N#Cc1cccc(-c2cc3nc(C(O)c4c(F)cccc4F)nn3c(N)n2)c1F (stereo not shown) [Compound 6, 3-(5-Amino-2-((2,6-difluorophenyl)(hydroxy)methyl)-[1,2,4]triazolo[1,5-c]pyrimidin-7-yl)-2-fluorobenzonitrile] | < 10 | EC50 [3, 4]: < 10 nM
6 | Cn1nccc1-c1c(-c2cccc(C#N)c2F)nc(N)c2nn(Cc3ccccn3)nc12 [Compound 16, 3-(4-amino-7-(1-methyl-1H-pyrazol-5-yl)-2-(pyridin-2-ylmethyl)-2H-[1,2,3]triazolo[4,5-c]pyridin-6-yl)-2-fluorobenzonitrile] | < 10 | 
7 | N#Cc1cccc(-c2nc(N)n3nc(C(O)c4c(F)cccc4F)nc3c2C#N)c1F (stereo not shown) [Compound 7, 5-Amino-7-(3-cyano-2-fluorophenyl)-2-((2,6-difluorophenyl)(hydroxy)methyl)-[1,2,4]triazolo[1,5-c]pyrimidine-8-carbonitrile] | < 10 | EC50 [3, 4]: < 10 nM
8 | N#Cc1cccc(-c2nc(N)n3nc(Cc4ccccn4)nc3c2-c2ccncn2)c1 [Compound 1, 3-(5-Amino-2-(pyridin-2-ylmethyl)-8-(pyrimidin-4-yl)-[1,2,4]triazolo[1,5-c]pyrimidin-7-yl)benzonitrile] | < 10 | 
9 | N#Cc1cccc(-c2cc3nc(C(O)c4ccccc4)nn3c(N)n2)c1 (stereo not shown) [Compound 5, 3-(5-Amino-2-(hydroxy(phenyl)methyl)-[1,2,4]triazolo[1,5-c]pyrimidin-7-yl)benzonitrile] | < 10 | EC50 [3, 4]: < 10 nM
10 | CCCCCn1c2cc(-c3cnn(Cc4ccc5c(c4)CCN(C(=O)CN(C)C)C5)c3)[nH]c2c(=O)n2c(C)nnc12 [Compound 20, 7-(1-((2-(2-(Dimethylamino)acetyl)-1,2,3,4-tetrahydroisoquinolin-6-yl)methyl)-1H-pyrazol-4-yl)-3-methyl-9-pentyl-6,9-dihydro-5H-pyrrolo[3,2-d][1,2,4]triazolo[4,3-a]pyrimidin-5-one] | < 10 | 
11 | N#Cc1cccc(-c2nc(N)c3nn(Cc4ncccc4F)nc3c2-c2ccncc2)c1 [Compound 15, 3-(4-amino-2-((3-fluoropyridin-2-yl)methyl)-7-(pyridin-4-yl)-2H-[1,2,3]triazolo[4,5-c]pyridin-6-yl)benzonitrile] | < 10 | 
12 | CCCCCn1c2cc(-c3cnn(Cc4cncc(Cl)c4)c3)[nH]c2c(=O)n2c(C)nnc12 [Compound 17, 7-(1-((5-Chloropyridin-3-yl)methyl)-1H-pyrazol-4-yl)-3-methyl-9-pentyl-6,9-dihydro-5H-pyrrolo[3,2-d][1,2,4]triazolo[4,3-a]pyrimidin-5-one] | < 10 | 
13 | CN1CCC(NCc2cccc(F)c2C(O)c2nc3cc(-c4cccc(C#N)c4F)nc(N)n3n2)C1=O (single isomer, unassigned) [Compound 8, 3-(5-Amino-2-((2-fluoro-6-(((1-methyl-2-oxopyrrolidin-3-yl)amino)methyl)phenyl)(hydroxy)methyl)-[1,2,4]triazolo[1,5-c]pyrimidin-7-yl)-2-fluorobenzonitrile] | < 10 | 
14 | N#Cc1cccc(-c2nc(N)c3nn(Cc4ncccc4F)nc3c2-c2ccncn2)c1 [Compound 14, 3-(4-amino-2-((3-fluoropyridin-2-yl)methyl)-7-(pyrimidin-4-yl)-2H-[1,2,3]triazolo[4,5-c]pyridin-6-yl)benzonitrile] | < 10 | 
15 | Cn1nc(-c2c(-c3cccc(C#N)c3)nc(N)c3nc(Cc4ccccn4)nn23)ccc1=O [Compound 9, 3-(8-Amino-5-(1-methyl-6-oxo-1,6-dihydropyridazin-3-yl)-2-(pyridin-2-ylmethyl)-[1,2,4]triazolo[1,5-a]pyrazin-6-yl)benzonitrile] |  | Percent TGI (Day 47 Tumor Growth Inhibition) [1]: 18.42%
16 | N#Cc1cccc(-c2nc(N)n3nc(C(O)c4c(F)cccc4F)nc3c2-c2ccncn2)c1 (single isomer, unassigned) [Compound 2, 3-(5-Amino-2-((2,6-difluorophenyl)(hydroxy)methyl)-8-(pyrimidin-4-yl)-[1,2,4]triazolo[1,5-c]pyrimidin-7-yl)benzonitrile] | < 10 | 
17 | N#Cc1cccc(-c2nc(N)c3nn(Cc4ccccn4)nc3c2-c2ccncn2)c1 [Compound 13, 3-(4-amino-2-(pyridin-2-ylmethyl)-7-(pyrimidin-4-yl)-2H-[1,2,3]triazolo[4,5-c]pyridin-6-yl)benzonitrile] | < 10 | 
18 | Cc1cccnc1COc1nc2c(-c3ccncn3)c(-c3cccc(C#N)c3)nc(N)n2n1 [Compound 4, 3-(5-Amino-2-((3-methylpyridin-2-yl)methoxy)-8-(pyrimidin-4-yl)-[1,2,4]triazolo[1,5-c]pyrimidin-7-yl)benzonitrile] | < 10 | 
